# Earlier results as cited in patent US6465436B2, “Method for treating alcohol intoxication and alcohol abuse” (McLean Hospital, priority 2000, dated 2002).
# How the values were obtained:
# [1] = for alcohol consumption suppressing activity of herbal medicines derived from Pueraria lobata (fractionation studies): U.S. Pat. No. 5,783,189
# human ALDH-1 = target: T1, human ALDH-1 (Homo sapiens, UniProt P05091)
# T1 sequence (P05091 18-517): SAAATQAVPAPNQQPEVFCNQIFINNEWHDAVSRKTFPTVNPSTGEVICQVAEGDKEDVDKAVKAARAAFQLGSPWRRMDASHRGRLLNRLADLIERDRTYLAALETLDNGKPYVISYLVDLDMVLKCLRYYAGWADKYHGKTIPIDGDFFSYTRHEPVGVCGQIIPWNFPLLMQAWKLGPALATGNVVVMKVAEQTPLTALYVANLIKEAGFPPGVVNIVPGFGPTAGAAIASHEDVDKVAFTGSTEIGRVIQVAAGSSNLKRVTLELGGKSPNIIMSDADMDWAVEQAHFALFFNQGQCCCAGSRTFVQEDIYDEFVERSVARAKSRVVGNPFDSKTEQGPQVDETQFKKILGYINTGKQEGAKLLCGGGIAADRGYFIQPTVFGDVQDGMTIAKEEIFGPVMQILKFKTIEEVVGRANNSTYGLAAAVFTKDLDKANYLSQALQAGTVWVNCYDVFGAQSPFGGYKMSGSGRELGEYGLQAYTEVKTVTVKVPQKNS
# [2] = in vivo
SMILES,alcohol consumption suppressing activity of herbal medicines derived from Pueraria lobata (fractionation studies) [1],activity in suppressing alcohol intake relative to daidzin ([1]; in vivo),ALDH inhibition (ALDH),human ALDH-1 inhibition (human ALDH-1),alcohol intake (Syrian Golden hamsters),blood alcohol levels [2],sleep time induced by alcohol [2]
O=c1c(-c2ccc(O)cc2)coc2c([C@@H]3O[C@H](CO[C@@H]4OC[C@](O)(CO)[C@H]4O)[C@@H](O)[C@H](O)[C@H]3O)c(O)ccc12 [mirificin],primarily responsible for the alcohol consumption suppressing activity,,,,,,
COc1cc(-c2coc3c([C@@H]4O[C@H](CO)[C@@H](O)[C@H](O)[C@H]4O)c(O)ccc3c2=O)ccc1O [3′-methoxypuerarin],primarily responsible for the alcohol consumption suppressing activity,,,,,,
O=c1c(-c2ccc(O)cc2)coc2c([C@@H]3O[C@H](CO)[C@@H](O)[C@H](O)[C@H]3O)c(O)ccc12 [puerarin],primarily responsible for the alcohol consumption suppressing activity,slightly less active than daidzin,not an ALDH inhibitor,,,,
O=c1c(-c2ccc(O)cc2)coc2cc(O[C@@H]3O[C@H](CO)[C@@H](O)[C@H](O)[C@H]3O)ccc12 [daidzin],primarily responsible for the alcohol consumption suppressing activity,,,potent human ALDH-1 inhibitors,suppressed alcohol intake,,
O=c1c(-c2ccc(O)cc2)coc2cc(O)ccc12 [daidzein],primarily responsible for the alcohol consumption suppressing activity,,,potent human ALDH-1 inhibitors,suppressed alcohol intake,decreases blood alcohol levels,shortens sleep time
